Data reported in patent US20240252650A1, “LIPID COMPOUNDS AND LIPID NANOPARTICLE COMPOSITIONS” (SUZHOU ABOGEN BIOSCIENCES CO., LTD., priority 2021, published 2024).

Tests used:
female Balb/c mice = assay: Animal study: LNPs encapsulating luciferase mRNA, tail vein injection, organ bioluminescence imaging (IVIS Spectrum CT); assay type: in vivo; details: luciferase mRNA LNP, 0.25 mg/kg tail vein; for luciferase expression in bone marrow (in words): 6 h; for bone marrow* Avg Radiance: bone marrow at 6 h; for brain* Avg Radiance: dissected brain at 6 h; for heart* Avg Radiance: dissected heart at 6 h; for kidney* Avg Radiance: dissected kidney at 6 h; for liver* Avg Radiance: dissected liver at 6 h; for lung* Avg Radiance: dissected lung at 6 h; for spleen* Avg Radiance: dissected spleen at 6 h
Experimental: Lipid nanoparticles comprising certain compounds provided herein encapsulating luciferase encoding (luciferase) mRNA were systemically administered to 6-8 week old female Balb/c mice (Charles River Lab, ZheJiang) at 0.25 mg/kg dose by tail vein injection, and mice blood were sampled at specific time points (e.g., 6 hours) post administration. Optical imaging was performed using the IVIS Spectrum CT device (PerkinElmer Inc., Paris, France). The luminescence level was evaluated by an ROI applied to the injection site zone (Living Image software, PerkinElmer Inc., Paris, France).
Radiance of heart, liver, spleen, lung, kidney, brain and bone marrow were taken at 6 h. Dissected organs were placed on a black sheet and imaged with IVIS Spectrum CT (PerkinElmer, Hopkinton, MA). To quantify bioluminescence emission signal, identical regions of interest (ROI) were positioned to encircle each organ region, the imaging signal was quantitated as average radiance (photons/s/cm2/steradian).

[1] = Apparent pKa of LNP formulations by TNS fluorescence assay; assay type: physicochemical; details: LNP cationic lipid/DSPC/cholesterol/DMG-PEG 50/10/38.5/1.5 mol %
Experimental: As reported in literature, the apparent pKa of LNP formulations correlates with the delivery efficiency of LNPs for nucleic acids in vivo. The apparent pKa of each formulation was determined using an assay based on fluorescence of 2-(p-toluidino)-6-napthalene sulfonic acid (TNS). LNP formulations comprising of cationic lipid/DSPC/cholesterol/DMG-PEG (50/10/38.5/1.5 mol %) in PBS were prepared as described above. TNS was prepared as a 300 uM stock solution in distilled water. LNP formulations were diluted to 0.1 mg/ml total lipid in 3 mL of buffered solutions containing 50 mM sodium citrate, 50 mM sodium phosphate, 50 mM sodium borate, and 30 mM sodium chloride where the pH ranged from 3 to 9. An aliquot of the TNS solution was added to give a final concentration of 0.1 mg/ml and following vortex mixing fluorescence intensity was measured at room temperature in a Molecular Devices Spectramax iD3 spectrometer using excitation and mission wavelengths of 325 nm and 435 nm. A sigmoidal best fit analysis was applied to the fluorescence data and the pKa value was measured as the pH giving rise to half-maximal fluorescent intensity.

[2] = Encapsulation efficiency of lipid nanoparticles (Quant-it Ribogreen RNA quantification assay); assay type: physicochemical
Experimental: (§1) Briefly, a cationic lipid provided herein, DSPC, cholesterol, and PEG-lipid were solubilized in ethanol at a molar ratio of 50:10:38.5:1.5, and mRNA were diluted in 10 to 50 mM citrate buffer, pH=4. The LNPs were prepared at a total lipid to mRNA weight ratio of approximately 10:1 to 30:1 by mixing the ethanolic lipid solution with the aqueous mRNA solution at a volume ratio of 1:3 using a microfluidic apparatus, total flow rate ranging from 9-30 mL/min. Ethanol were thereby removed and replaced by DPBS using dialysis. Finally, the lipid nanoparticles were filtered through a 0.2 μm sterile filter.
(§2) Lipid nanoparticle size were determined by dynamic light scattering using a Malvern Zetasizer Nano ZS (Malvern UK) using a 173° backscatter detection mode. The encapsulation efficiency of lipid nanoparticles were determined using a Quant-it Ribogreen RNA quantification assay kit (Thermo Fisher Scientific, UK) according to the manufacturer's instructions.

[3] = Lipid nanoparticle size and polydispersity by dynamic light scattering (Malvern Zetasizer Nano ZS); assay type: physicochemical
Experimental: as §1, §2

[4] = LNP: cationic lipid/DSPC/cholesterol/PEG-lipid 50:10:38.5:1.5, mRNA, table of Example 15
[5] = LNP encapsulating hEPO mRNA, table of Example 16

Compound	luciferase expression in bone marrow (in words) (female Balb/c mice)	bone marrow* Avg Radiance (female Balb/c mice)	brain* Avg Radiance (female Balb/c mice)	heart* Avg Radiance (female Balb/c mice)	kidney* Avg Radiance (female Balb/c mice)	liver* Avg Radiance (female Balb/c mice)	lung* Avg Radiance (female Balb/c mice)	spleen* Avg Radiance (female Balb/c mice)	Apparant Pka ([1]; table of Example 15)	Encapsulation Efficiency [2, 4] [%]	polydispersity [3, 4]	size (nm) [3, 4] [nm]	Apparant Pka ([1]; table of Example 16)	Encapsulation Efficiency [2, 5] [%]	polydispersity [3, 5]	size (nm) [3, 5] [nm]
CCCCCCCC(=O)OCC(CCCC(=O)OCC(COC(=O)CCCCCCC)COC(=O)CCCCCCN(CCO)C1CCC1)COC(=O)CCCCCCC (centres unmarked) [Compound 78]	mild expression	0.51 E+04 p/s/cm^2/sr	3.25 E+04 p/s/cm^2/sr	3.65 E+04 p/s/cm^2/sr	7.88 E+04 p/s/cm^2/sr	11.41 E+06 p/s/cm^2/sr	3.83 E+04 p/s/cm^2/sr	2.07 E+06 p/s/cm^2/sr	6.864	87.30	0.043	132				
C=CCN(CCO)CCCCC(=O)OCC(COC(=O)CCCCCCCCCCCCCCCCC)COC(=O)CCCC(COC(=O)CCCCCCC)COC(=O)CCCCCCC (centres unmarked) [Compound 84]													6.597	92.56	0.069	84.76
CCCCC/C=C\C/C=C\CCCCCCCC(=O)OCC(COC(=O)CCCC(COC(=O)CCCCCCC)COC(=O)CCCCCCC)COC(=O)OCCCN(CCC)CCO (centres unmarked) [Compound 87]													6.384	93.62	0.034	99.16
CCCCCCCC(=O)OCC(CCCC(=O)OCC(COC(=O)CCCC(COC(=O)CCCCCCC)COC(=O)CCCCCCC)COC(=O)OCCN(C)CCO)COC(=O)CCCCCCC [Compound 91]													5.811	86.02	0.023	72.66
CCCCCCCCCCCCCCCCCC(=O)OCC(COC(=O)CCCCN(CCC)CCO)COC(=O)CCC(=O)OCC(COC(=O)CCCCCCC)COC(=O)CCCCCCC (centres unmarked) [Compound 98]													7.14	83.41	0.207	102.92
CCCCCCCCC(CCCCCCCC)COC(=O)CCOCC(COCCC(=O)OCC(CCCCCCCC)CCCCCCCC)COC(=O)CCCCN(CCO)C1CCC1 [Compound 100]													6.535	91.54	0.02588	67.27
CCCCCCCCOC(=O)CCCCCCCC(=O)OCC(COC(=O)CCCCN(CCO)C1CCCCC1)COC(=O)CCCC(COC(=O)CCCCCCC)COC(=O)CCCCCCC (centres unmarked) [Compound 104]													6.707	89.87	0.02612	98.52
CCCCC/C=C\C/C=C\CCCCCCCC(=O)OCC(COC(=O)CCCC(COC(=O)CCCCCCC)COC(=O)CCCCCCC)COC(=O)OCCCN(CCO)CCCC (centres unmarked) [Compound 105]													6.262	89.77	0.06244	80.11
CCCCC/C=C\C/C=C\CCCCCCCC(=O)OCC(COC(=O)CCCC(COC(=O)CCCCCCC)COC(=O)CCCCCCC)COC(=O)OCCCN(CCO)C1CCCCC1 (centres unmarked) [Compound 106]													6.091	77.94	0.01154	77.71
CCCCC/C=C\C/C=C\CCCCCCCC(=O)OCC(COC(=O)CCCC(COC(=O)CCCCCCC)COC(=O)CCCCCCC)OC(=O)CCCCN(CCO)C1CCCCC1 (centres unmarked) [Compound 107]													6.441	89.61	0.04979	66.11
CCCCCCCCCCCCCCCCCC(=O)OCC(COC(=O)CCCC(COC(=O)CCCCCCC)COC(=O)CCCCCCC)OC(=O)CCCCN(CCO)C1CCC1 (centres unmarked) [Compound 114]	mild expression	0.2 E+04 p/s/cm^2/sr	6.01 E+04 p/s/cm^2/sr	5.49 E+04 p/s/cm^2/sr	7.63 E+04 p/s/cm^2/sr	21.27 E+06 p/s/cm^2/sr	6.22 E+04 p/s/cm^2/sr	2.7 E+06 p/s/cm^2/sr	7.194	87.34	0.206	89.95				
CCCCC/C=C\C/C=C\CCCCCCCC(=O)OCC(COC(=O)CCC(OCCCCCCCC)OCCCCCCCC)COC(=O)OCCCN(CCO)C1CCC1 (centres unmarked) [Compound 115]		−0.66 E+04 p/s/cm^2/sr	14.59 E+04 p/s/cm^2/sr	13.74 E+04 p/s/cm^2/sr	27.83 E+04 p/s/cm^2/sr	44.21 E+06 p/s/cm^2/sr	7.01 E+04 p/s/cm^2/sr	1.06 E+06 p/s/cm^2/sr	6.499	91.21	0.033	71.59				
CCCCC/C=C\C/C=C\CCCCCCCC(=O)OCC(COC(=O)CCCCN(CCO)C1CCC1)COC(=O)CCC(OCCCCCCCC)OCCCCCCCC (centres unmarked) [Compound 116]		−0.16 E+04 p/s/cm^2/sr	13.52 E+04 p/s/cm^2/sr	12.65 E+04 p/s/cm^2/sr	28.62 E+04 p/s/cm^2/sr	40.56 E+06 p/s/cm^2/sr	17.29 E+04 p/s/cm^2/sr	1.38 E+06 p/s/cm^2/sr	6.881	92.40	0.049	78.48				
CCCCC/C=C\C/C=C\CCCCCCCC(=O)OCC(COC(=O)CCCCCCC/C=C\C/C=C\CCCCC)COC(=O)CCCCCCCN(CCO)C1CCC1 [Compound 124]	mild expression	2.2 E+04 p/s/cm^2/sr	16.34 E+04 p/s/cm^2/sr	32.73 E+04 p/s/cm^2/sr	34.36 E+04 p/s/cm^2/sr	47.09 E+06 p/s/cm^2/sr	16.04 E+04 p/s/cm^2/sr	11.21 E+06 p/s/cm^2/sr	7.1	90.85	0.078	90.89				
CCCCC/C=C\C/C=C\CCCCCCCC(=O)OCC(COC(=O)CCCCN(CCOCCO)C1CCC1)COC(=O)CCCC(COC(=O)CCCCCCC)COC(=O)CCCCCCC (centres unmarked) [Compound 125]		−0.94 E+04 p/s/cm^2/sr	4.61 E+04 p/s/cm^2/sr	5.27 E+04 p/s/cm^2/sr	8.4 E+04 p/s/cm^2/sr	16.61 E+06 p/s/cm^2/sr	7.67 E+04 p/s/cm^2/sr	2.24 E+06 p/s/cm^2/sr	6.863	87.71	0.025	83.81				
CCCCC/C=C\C/C=C\CCCCCCCC(=O)OCC(COC(=O)CCC(OCCCCCCCC)OCCCCCCCC)COC(=O)OCCCN(CCO)C1CCCCC1 (centres unmarked) [Compound 126]		−1.44 E+04 p/s/cm^2/sr	10.48 E+04 p/s/cm^2/sr	23.71 E+04 p/s/cm^2/sr	29.29 E+04 p/s/cm^2/sr	54.3 E+06 p/s/cm^2/sr	15.58 E+04 p/s/cm^2/sr	0.73 E+06 p/s/cm^2/sr	6.154	91.87	0.039	71.38				
